Literature values as cited in patent US5637565A, “Purified form of streptogramins, its preparation and pharmaceutical compositions containing it” (Rhone-Poulenc Rorer S.A., priority 1993, dated 1997).

Conditions: purified crystalline product

bioavailability: too low
Compound: CC1=C\[C@@H](O)CC(=O)Cc2nc(co2)C(=O)N2CCC=C2C(=O)O[C@H](C(C)C)[C@H](C)/C=C/C(=O)NC\C=C\1 [pristinamycin IIA]
